In patent publication US10925872B2, “Methods of treating cochlear synaptopathy” (PIPELINE THERAPEUTICS, INC., priority 2016, dated 2021):

Assays:
DCC α-fragment = DCC α-fragment Western blot of cochlea after round window delivery in vivo; design: species or system CBA/J mice; conditions: 2% in vehicle, 2 μl bilaterally to the round window, one week later
Experimental: Compound I (2% in vehicle, 2 μl) or vehicle (2 μl) was delivered bilaterally to the round window of CBA/J mice. One week later, cochlea were collected and processed for Western blot. Both cochlea from two animals were used to generate each data point. Cochlea were homogenized in 50 μL radioimmunoprecipitation assay buffer then allowed to lyse further at 4° C. for 1 h. Bone was spun out and 4× sample loading buffer added. Samples were run on a 4-15% TGX gradient gel (BioRad, Hercules, Calif.) and transferred to a nitrocellulose membrane and blocked with Odyssey Blocking Buffer (LI-COR, NE). Blots were probed with mouse DCC (BD Biosciences, San Jose, Calif.) at 1:500, and rabbit actin (loading control) antibodies (Li-Cor, NE) in blocking buffer containing 0.1% Tween-20. Membranes were washed with PBS/0.1% Tween then incubated in secondary antibody (goat anti-mouse IRDye 680LT and goat anti-rabbit IRDye 800LT, both from LI-COR, NE) diluted 1:10,000 in blocking buffer containing 0.1% Tween-20 and 0.01% SDS. Membranes were washed in PBS then imaged on a LiCor Odyssey Classic scanner and the DCC α-fragment quantified using ImageJ.

inner hair cell synapses = test: Guinea pig kanamycin-induced cochlear synaptopathy model; format: in vivo, Hartley guinea pigs; conditions: kanamycin 400 mg/kg i.p. 10 days; 30 μl of 2% in vehicle bilateral transtympanic on day 15; three months after
Experimental: Beginning on day 0, male Hartley guinea pigs (450-500 g) were deafened by intraperitoneal administration of kanamycin (400 mg/kg) dosed once daily for 10 consecutive days. […] A loss of synapse density in this model has not been described previously. On day 15, animals received bilateral transtympanic injections of vehicle (30 μl), crystalline Compound I (30 μl of 2% in vehicle), or crystalline Compound II (30 μl of 2% in vehicle). Three months after administration of test article, animals were euthanized and cochleae collected and stained with phalloidin and antibodies against CtBP2 and NF-200. The number of CtBP2+/NF-200+ synapses were quantified and normalized to the number of inner hair cells to obtain synapse density. Synapse density was decreased with kanamycin treatment at 14.7 and 17.3 mm from the apex of the cochlea, which in the guinea pig cochlea, tonally correlates with 16 and 32 kHz, respectively, according to the Greenwood frequency map.
Vehicle (PF10) and GSI in vehicle used in Examples 6 and 7 were prepared as follows: To 129 mL sterile water was added, 0.96 g sodium chloride, 0.59 g sodium phosphate dibasic, and 0.14 g sodium phosphate monobasic. The solution was stirred at ambient temperature and 25.6 g poloxamer 407 was added and stirred overnight to yield a clear solution. […]

C[C@H](OC(=O)NCC(F)(F)C(F)(F)F)C(=O)N[C@@H]1C(=O)Nc2ccccc2-c2ccccc21 [Compound I, (2,2,3,3,3-pentafluoropropyl)-carbamic acid (S)-1-((S)-6-oxo-6,7-dihydro-5H-dibenzo[b,d]azepin-7-ylcarbamoyl) ethyl ester]
DCC α-fragment compared to vehicle alone (DCC α-fragment): approximately two fold increase
synapse density (CtBP2+/NF-200+ synapses per inner hair cell) (inner hair cell synapses): increased
